The test system of this assay is MDA-MB-468 breast. The assay is described as follows: inhibition of tumour cell growth, NCI panel, 48 h.

Several values for one entry are separate records, joined by “and”; a condition that tells them apart may be missing. Equal entries are not always repeated.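 Step 1: Grow cells in 96-well plates. Step 2: Expose to compound for 48 hours at 5 concentrations. Step 3: Interpolate endpoints linearly; if unreached, use highest concentration. GI50 marks 50% less growth. TGI marks complete inhibition of growth.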

Consider `CCOc1ccc(Nc2ccnc3cc(Cl)ccc23)cc1`, for which the GI50 is 43.1 µM and the TGI is greater than 100 µM.

With `COc1ccc2cc(C(=O)N3CCC([C@@H](C)C(=O)NCc4ccc5c(c4)OCO5)CC3)[nH]c2c1`, the GI50 was 86.2 µM and the TGI is greater than 100 µM.

For the molecule `NC(=O)c1ccc(I)c([N+](=O)[O-])c1`, the GI50 is 24.4 µM and the TGI was greater than 65.6 µM.

Turning to `COC(=O)[C@@H](C)C[C@H](Cc1ccccc1)NC(=O)c1csc([C@@H](C[C@H](C(C)C)N(C)C(=O)[C@@H](NC(=O)[C@H]2CCCCN2C)c2ccc(F)cc2)OC(C)=O)n1`, the GI50 was 0.00417 µM and 0.0025 µM and 0.0163 µM; the TGI is 25 µM and > 100 µM.

Consider `C=C[C@@H]1CCC/C=C/[C@@H]2C[C@H](O)C[C@H]2[C@H](O)/C=C/C(=O)O1`, for which the GI50 was 0.216 µM and the TGI was found to be 0.611 µM.

Consider `C#Cc1cccc(Nc2nc(C)nc3cc(NC(=O)CCl)ccc23)c1`, for which the GI50 was 0.77 µM and the TGI came out at 2.18 µM.

For `CC1(C)N=C(N)N=C(N)N1c1cccc(CCCCc2ccc(Cl)c(S(=O)(=O)F)c2)c1`, the GI50 was 10.6 µM and the TGI was determined as 24.5 µM.

For `CCCCCCCC(=O)Nc1nc2[nH]c(CN3CCN(Cc4cccc(I)c4)CC3)c(CN3CCN(Cc4cccc(I)c4)CC3)c2c(=O)[nH]1`, the GI50 is 0.858 µM and the TGI came out at 1.64 µM.

`O=C(Nc1ccc(Cl)cc1)c1cc(NCc2cc(O)ccc2O)ccc1O`: the GI50 was 4.81 µM and the TGI came out at 26.6 µM.

Turning to `O=c1cc(-c2ccccc2)oc2c(O)c(O)ccc12`, the GI50 was 14.3 µM and the TGI came out at 79.2 µM.

`Cc1cccc2c(=O)c3c(sc12)c(NCCCN)nc1ccccc13`: the GI50 is 1.43 µM and the TGI was 2.94 µM.

With `Cn1cc(-c2ncnc3ccc(-c4cnc(Cl)c(NS(C)(=O)=O)c4)cc23)c2ccccc21`, the GI50 was 0.183 µM and the TGI stood at 2.35 µM.

As to `N#Cc1nc(-c2ccccc2)oc1S(=O)(=O)N1CCN(CCc2ccccn2)CC1`, the GI50 is 1.6 µM and the TGI was found to be 3.45 µM.

For the molecule `COc1ccc2c(c1)C(=O)/C(=C/c1ccc(O)cc1)O2`, the GI50 is 2.4 µM and the TGI amounted to 12.4 µM.

As to `O=c1oc2ccc(F)cc2c(=O)n1-c1ccc(I)cc1F`, the GI50 is 0.375 µM and the TGI was determined as 2.45 µM.

As to `Cc1cc(C)c([I+]c2c(C)cc(C)cc2C)c(C)c1`, the GI50 is 0.134 µM and the TGI turned out to be 0.672 µM.

On to `O=C1NN(C(=O)c2ccccc2)C(c2ccc(Cl)c(Cl)c2)=C/C1=C\c1ccccc1[N+](=O)[O-]`, for which the GI50 is 6.14 µM and the TGI was greater than 6.75 µM.

As to `N#Cc1c(N)c(C(=O)c2ccc3c(c2)OCCO3)n2c1CCCC2`, the GI50 was 2.47 µM and the TGI worked out at 23.7 µM.

Regarding `COc1cc2nc(Cl)nc(Nc3cccc(C4=Nc5c(N)nc(N)nc5NC(c5ccc(F)cc5)C4)c3)c2cc1OC` (stereo not drawn), the GI50 was 1.79 µM and the TGI is 3.39 µM.

On to `COc1cc(OCCCN2CCCC2)ccc1Nc1ncc(Cl)c(Nc2ccccc2P(C)(C)=O)n1`, for which the GI50 was 1.22 µM and the TGI is 3.64 µM.

Consider `Oc1c(CN2CCCCC2)ccc2cccnc12`, for which the GI50 is 4.89 µM and the TGI came out at 22.4 µM.

With `COC(=O)[C@@H](C)C[C@H](Cc1ccc(F)cc1)NC(=O)c1csc([C@@H](C[C@H](C(C)C)N(C)C(=O)[C@@H](NC(=O)[C@H]2CCCCN2C)C2CC2)OC(C)=O)n1`, the GI50 was 0.138 µM and the TGI is greater than 25 µM.

For `COc1ccc(-c2c(NC(=O)Nc3ccc(Cl)c(C(F)(F)F)c3)cnn2-c2ccc(S(N)(=O)=O)cc2)cc1`, the GI50 was 2.05 µM and the TGI amounted to 6.88 µM.

As for `CC[C@H](C)[C@H](NC(=O)c1ncccn1)C(=O)N(C)[C@H](C[C@@H](OC(C)=O)c1nc(C(=O)N[C@@H](Cc2ccccc2)C[C@H](C)C(=O)OC)cs1)C(C)C`, the GI50 is 0.757 µM and the TGI was greater than 25 µM.

Turning to `FC(F)(F)c1cccc(Oc2ccc(Nc3ncnc4ccc(OCCCN5CCOCC5)cc34)cc2Cl)c1`, the GI50 is 0.48 µM and the TGI stood at 2.85 µM.

For `N[C@@H](Cc1c[nH]c2ccccc12)C(=O)NC1CCN(Cc2c[nH]c3ccc(Cl)cc23)CC1`, the GI50 was 2.43 µM and the TGI came out at 5.74 µM.

Regarding `COC1=CC(c2ccc[nH]2)=N/C1=C\c1[nH]c(C)c(CC(=O)NCc2ccccc2)c1C`, the GI50 was 1.17 µM and the TGI stood at 2.63 µM.

As to `CCCCCCCCCCCCCCCCCC1=NC(C)(C)CN1C(C)(C)CO`, the GI50 is 1.21 µM and the TGI was 2.56 µM.

`CC1(C)CC[C@]2(C(=O)NCCNCCN)CC[C@]3(C)C(=CC[C@@H]4[C@@]5(C)CCC(=O)C(C)(C)[C@@H]5CC[C@]43C)[C@@H]2C1`: the GI50 was 1.71 µM and the TGI stood at 3.29 µM.

`CCCCNC(=O)Oc1ccc(/C(=C(\C)c2ccc(OC)cc2)c2ccc(OCCN3CCCCC3)cc2)cc1`: the GI50 was 2.08 µM and the TGI stood at 5.07 µM.

Turning to `NC(CCl)=NCC12CC3CC(CC(C3)C1)C2`, the GI50 is 0.827 µM and the TGI stood at 6.95 µM.

As to `Nc1ccccc1NC(=O)c1ccc(NC(=O)C/C=C/c2cccnc2)cc1`, the GI50 was 0.915 µM and the TGI stood at 2.66 µM.

On to `O=C(N/N=C\c1ccc(N(CCCl)CCCl)cc1)c1cccnc1`, for which the GI50 is 11 µM and the TGI worked out at 59.6 µM.

Consider `COc1cc(-c2n/c(=C\c3c(O)[nH]c4ccccc34)cc3c2=Nc2ccccc2-3)ccc1F`, for which the GI50 is 2.61 µM and the TGI is 16.7 µM.

As to `COc1ccc(-c2oc3ncnc(N)c3c2-c2ccc(NC(=O)Nc3cc(C(F)(F)F)ccc3F)cc2)cc1`, the GI50 is 0.903 µM and the TGI turned out to be 2.31 µM.

For `COc1nc2c(c(=O)n1C)CN(c1ccccc1)C(=O)CN2C`, the GI50 was 13.3 µM and the TGI is 80.9 µM.

As to `O=C(N/N=C/c1ccc([N+](=O)[O-])cc1)c1ccccc1Nc1ccnc(C(F)(F)F)c1`, the GI50 was 15.8 µM and the TGI is 41.3 µM.

As to `C[C@]1(c2nc3c(C(N)=O)cccc3[nH]2)CCCN1`, the GI50 is 29.7 µM and the TGI is greater than 100 µM.

`CO[C@H]1/C=C/O[C@@]2(C)Oc3c(C)c(O)c4c(O)c(c(/C=N/N5C(C)CN(Cc6ccc(C#N)cc6)CC5C)c(O)c4c3C2=O)NC(=O)/C(C)=C\C=C\[C@H](C)[C@H](O)[C@@H](C)[C@@H](O)[C@@H](C)[C@H](OC(C)=O)[C@@H]1C` (stereo partly drawn): the GI50 is 11 µM and the TGI came to 39.9 µM.

(Values after PubChem BioAssay (NCI).)
